From ChEMBL document CHEMBL1125453, “Side chain modified 5-deazafolate and 5-deazatetrahydrofolate analogues as mammalian folylpolyglutamate synthetase and glycinamide ribonucleotide formyltransferase inhibitors: synthesis and in vitro biological evaluation” (J Med Chem, 1992)

Assays:
Thymidylate synthase = Thymidylate synthase (Homo sapiens, UniProt P04818); assay: In vitro inhibition of human thymidylate synthase (TS)
[1] = biological target: T1, Trifunctional purine biosynthetic protein adenosine-3 (Mus musculus, UniProt Q64737); assay: In vitro inhibition of mouse GAR transformylase
T1 sequence (Q64737 whole entry): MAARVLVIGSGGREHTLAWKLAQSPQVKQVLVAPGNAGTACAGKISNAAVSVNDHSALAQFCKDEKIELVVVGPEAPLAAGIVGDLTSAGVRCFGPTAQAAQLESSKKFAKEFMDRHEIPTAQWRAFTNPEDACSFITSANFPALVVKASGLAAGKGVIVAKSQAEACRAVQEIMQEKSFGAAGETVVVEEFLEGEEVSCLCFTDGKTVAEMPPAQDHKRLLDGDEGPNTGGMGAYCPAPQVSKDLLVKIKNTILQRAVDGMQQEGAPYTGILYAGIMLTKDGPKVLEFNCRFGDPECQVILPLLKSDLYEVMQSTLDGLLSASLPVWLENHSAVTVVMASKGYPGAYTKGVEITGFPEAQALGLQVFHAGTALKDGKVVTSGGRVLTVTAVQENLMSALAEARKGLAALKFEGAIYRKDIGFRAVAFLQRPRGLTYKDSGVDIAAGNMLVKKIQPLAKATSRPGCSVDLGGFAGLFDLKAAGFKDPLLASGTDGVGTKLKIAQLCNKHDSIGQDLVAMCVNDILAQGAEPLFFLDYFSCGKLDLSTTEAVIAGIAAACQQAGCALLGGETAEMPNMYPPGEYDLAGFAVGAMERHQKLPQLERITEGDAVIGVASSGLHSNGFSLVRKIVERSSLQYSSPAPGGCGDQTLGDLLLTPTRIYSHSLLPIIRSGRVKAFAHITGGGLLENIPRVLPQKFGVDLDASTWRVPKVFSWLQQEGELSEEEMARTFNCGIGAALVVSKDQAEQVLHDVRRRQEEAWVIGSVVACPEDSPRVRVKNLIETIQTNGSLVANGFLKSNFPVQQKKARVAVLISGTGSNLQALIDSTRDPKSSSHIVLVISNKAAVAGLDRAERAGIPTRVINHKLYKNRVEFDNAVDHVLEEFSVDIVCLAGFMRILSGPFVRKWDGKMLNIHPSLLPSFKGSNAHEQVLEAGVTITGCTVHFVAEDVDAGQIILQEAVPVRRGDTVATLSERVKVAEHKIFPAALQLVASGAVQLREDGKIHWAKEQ

[2] = biological target: T2, Folylpolyglutamate synthase, mitochondrial (Mus musculus, UniProt P48760); assay: In vitro inhibition of mouse liver Folyl-polyglutamate synthase
T2 sequence (P48760 whole entry): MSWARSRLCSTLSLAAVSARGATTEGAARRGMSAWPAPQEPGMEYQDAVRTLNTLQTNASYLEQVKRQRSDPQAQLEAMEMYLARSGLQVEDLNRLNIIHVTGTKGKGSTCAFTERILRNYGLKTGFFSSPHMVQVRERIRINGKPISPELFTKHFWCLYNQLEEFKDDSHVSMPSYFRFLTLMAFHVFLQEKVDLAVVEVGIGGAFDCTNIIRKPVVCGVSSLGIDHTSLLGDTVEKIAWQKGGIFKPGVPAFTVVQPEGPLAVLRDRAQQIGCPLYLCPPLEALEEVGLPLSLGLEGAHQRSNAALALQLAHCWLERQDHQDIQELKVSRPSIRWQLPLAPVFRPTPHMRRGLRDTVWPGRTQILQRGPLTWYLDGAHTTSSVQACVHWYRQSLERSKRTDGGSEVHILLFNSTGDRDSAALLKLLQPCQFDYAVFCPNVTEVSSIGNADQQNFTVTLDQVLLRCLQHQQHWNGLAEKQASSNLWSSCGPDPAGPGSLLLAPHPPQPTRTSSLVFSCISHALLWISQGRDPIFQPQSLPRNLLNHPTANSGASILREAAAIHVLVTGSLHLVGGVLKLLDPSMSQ

Dihydrofolate reductase = biological target: T3, Dihydrofolate reductase (Homo sapiens, UniProt P00374); assay: In vitro inhibition of human dihydrofolate reductase (DHFR)
T3 sequence (P00374 whole entry): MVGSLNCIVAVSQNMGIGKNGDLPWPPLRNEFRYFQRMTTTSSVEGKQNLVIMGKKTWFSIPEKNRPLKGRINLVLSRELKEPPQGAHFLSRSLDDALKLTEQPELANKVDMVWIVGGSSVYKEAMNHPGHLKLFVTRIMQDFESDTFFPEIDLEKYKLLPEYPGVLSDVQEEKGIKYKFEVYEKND

[3] = biological target: T1, Trifunctional purine biosynthetic protein adenosine-3; assay: In vitro inhibition of Glycinamide ribonucleotide formyltransferase from L1210 murine leukemia cells

Chain of Thymidylate synthase (P04818 whole entry): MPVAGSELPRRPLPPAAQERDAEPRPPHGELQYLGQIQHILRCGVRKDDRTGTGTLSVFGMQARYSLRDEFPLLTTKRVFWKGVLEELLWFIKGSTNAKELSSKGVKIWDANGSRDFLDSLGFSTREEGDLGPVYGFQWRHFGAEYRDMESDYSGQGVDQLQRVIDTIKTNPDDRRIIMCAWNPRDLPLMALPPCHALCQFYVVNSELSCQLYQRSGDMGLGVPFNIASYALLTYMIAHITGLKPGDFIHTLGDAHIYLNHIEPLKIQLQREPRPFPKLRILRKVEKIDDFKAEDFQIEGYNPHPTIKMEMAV

Row | IC50 (Thymidylate synthase) [µM] | Ki [1] [µM] | Structure (SMILES) | Ki [2] [µM] | IC50 (Dihydrofolate reductase) [µM] | Ki [3] [µM]
1 | 100 |  | CCOP(=O)(O)CCC(NC(=O)c1ccc(NCc2cnc3nc(N)[nH]c(=O)c3c2)cc1)C(=O)O (configuration not stated) | 2000 | 1.3 | 
2 | 55 |  | Nc1nc2ncc(CNc3ccc(C(=O)NC(CCS(=O)(=O)O)C(=O)O)cc3)cc2c(=O)[nH]1 (configuration not stated) | 570 | 0.4 | 
3 | 300 |  | Nc1nc2ncc(CNc3ccc(C(=O)NC(CCP(=O)(O)O)C(=O)O)cc3)cc2c(=O)[nH]1 (configuration not stated) | 9 | 4.7 | 

The next lines start with the compound.

Row | Structure (SMILES) | IC50 (Thymidylate synthase) [µM] | Ki [1] [µM] | Ki [2] [µM] | IC50 (Dihydrofolate reductase) [µM] | Ki [3] [µM]
4 | CCCN(Cc1ccc2nc(N)nc(O)c2c1)c1ccc(C(=O)NC(CCC(=O)O)C(=O)O)cc1 (configuration not stated) | 0.068 |  |  |  | 
5 | Nc1nc(O)c2c(n1)CCC(CNc1ccc(C(=O)NC(CCC(=O)O)C(=O)O)cc1)C2 (configuration not stated) |  | 0.065 |  |  | 
6 | Nc1nc(O)c2c(n1)NCC(CNc1ccc(C(=O)NC(CCP(=O)(O)O)C(=O)O)cc1)C2 (configuration not stated) | 4200 |  | 3.2 | 220 | 0.047
7 | CCOP(=O)(O)CCC(NC(=O)c1ccc(NCC2CNc3nc(N)nc(O)c3C2)cc1)C(=O)O (configuration not stated) | > 5000 |  | 115 | 950 | 
8 | Nc1nc(O)c2c(n1)NCC(CNc1ccc(C(=O)NC(CCS(=O)(=O)O)C(=O)O)cc1)C2 (configuration not stated) | 2100 |  | 22 | 12 | 0.19
